In patent US7842698B2, “Pyridine methylene azolidinones and use thereof phosphoinositide inhibitors” (Merck Serono S.A., priority 2004, dated 2010):
Counter-ions that a name gives are not always drawn. Like-named read-outs stand apart in the source and are kept apart here.

Assays:
[1] = target: Human recombinant GST-PI3Kγ (Homo sapiens, UniProt P48736); test: High throughput PI3K lipid kinase assay (scintillation proximity assay, neomycin-coated SPA beads); type: biochemical; settings: [33P]γ-ATP, 180 minutes at room temperature
Human recombinant GST-PI3Kγ, sequence (P48736 whole entry): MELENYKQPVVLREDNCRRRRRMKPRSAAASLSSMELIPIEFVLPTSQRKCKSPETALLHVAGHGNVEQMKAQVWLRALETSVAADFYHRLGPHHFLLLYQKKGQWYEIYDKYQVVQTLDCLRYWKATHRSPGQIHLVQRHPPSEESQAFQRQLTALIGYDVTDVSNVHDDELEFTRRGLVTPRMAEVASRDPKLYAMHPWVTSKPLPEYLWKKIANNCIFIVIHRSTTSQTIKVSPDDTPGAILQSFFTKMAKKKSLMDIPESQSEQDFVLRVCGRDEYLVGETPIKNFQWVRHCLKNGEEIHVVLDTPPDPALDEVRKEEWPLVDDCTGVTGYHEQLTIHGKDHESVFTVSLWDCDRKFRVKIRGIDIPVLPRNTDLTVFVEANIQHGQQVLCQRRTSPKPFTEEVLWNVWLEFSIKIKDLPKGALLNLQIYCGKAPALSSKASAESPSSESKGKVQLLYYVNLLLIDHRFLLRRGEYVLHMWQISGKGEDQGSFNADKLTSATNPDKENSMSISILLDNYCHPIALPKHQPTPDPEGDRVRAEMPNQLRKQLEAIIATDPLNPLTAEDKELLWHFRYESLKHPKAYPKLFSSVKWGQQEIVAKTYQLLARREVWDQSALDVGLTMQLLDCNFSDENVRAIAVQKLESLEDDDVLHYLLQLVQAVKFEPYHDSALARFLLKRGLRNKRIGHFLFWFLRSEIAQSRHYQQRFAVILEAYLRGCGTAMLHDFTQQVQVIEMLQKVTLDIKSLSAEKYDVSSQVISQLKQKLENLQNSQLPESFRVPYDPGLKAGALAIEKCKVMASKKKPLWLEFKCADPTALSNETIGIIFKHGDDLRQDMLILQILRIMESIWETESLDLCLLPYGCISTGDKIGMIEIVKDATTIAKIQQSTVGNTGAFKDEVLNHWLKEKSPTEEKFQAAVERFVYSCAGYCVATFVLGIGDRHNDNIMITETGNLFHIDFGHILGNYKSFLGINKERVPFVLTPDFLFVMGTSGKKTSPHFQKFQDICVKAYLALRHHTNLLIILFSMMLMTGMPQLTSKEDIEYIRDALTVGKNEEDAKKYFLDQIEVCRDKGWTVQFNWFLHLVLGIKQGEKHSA
Text: a) High Throughput PI3K Lipid Kinase Assay (Binding Assay):
The efficacy of compounds of the invention in inhibiting the PI3K induced-lipid phosphorylation may be tested in the following binding assay.
The assay combines the scintillation proximity assay technology (SPA, Amersham) with the capacity of neomycin (a polycationic antibiotic) to bind phospholipids with high affinity and specificity. The Scintillation Proximity Assay is based on the properties of weakly emitting isotopes (such as ^3H, ^125I, ^33P). Coating SPA beads with neomycin allows the detection of phosphorylated lipid substrates after incubation with recombinant PI3K and radioactive ATP in the same well, by capturing the radioactive phospholipids to the SPA beads through their specific binding to neomycin.
To a 384 wells MTP containing 5 μl of the test compound of Formula (I) (solubilized in 6% DMSO; to yield a concentration of 100, 30, 10, 3, 1, 0.3, 0.1, 0.03, 0.01, 0.001 μM of the test compound), the following assay components are added. 1) 5 μl (58 ng) of Human recombinant GST-PI3Kγ (in Hepes 40 mM, pH 7.4, DTT 1 mM and ethyleneglycol 5%) 2) 10 μl of lipid micelles and 3) 10 μl of Kinase buffer ([^33P]γ-ATP 45 μM/60 n Ci, MgCl2 30 mM, DTT 1 mM, β-Glycerophosphate 1 mM, Na3VO4 100 μM, Na Cholate 0.3%, in Hepes 40 mM, pH 7.4). After incubation at room temperature for 180 minutes, with gentle agitation, the reaction is stopped by addition of 60 μl of a solution containing 100 μg of neomycin-coated PVT SPA beads in PBS containing ATP 10 mM and EDTA 5 mM. The assay is further incubated at room temperature for 60 minutes with gentle agitation to allow binding of phospholipids to neomycin-SPA beads. After precipitation of the neomycin-coated PVT SPA beads for 5 minutes at 1500× g, radioactive PtdIns(3)P is quantified by scintillation counting in a Wallac MicroBeta™ plate counter.
The values indicated in Table I below refer to the IC50 (nM) with respect to PI3Kγ, i.e. the amount necessary to achieve 50% inhibition of said target. Said values show a considerable inhibitory potency of thiazole compounds with regard to PI3Kγ.

[2] = system: Akt/PKB phosphorylation in Raw 264-7 macrophages; test: Cell based ELISA to monitor PI3K inhibition: Akt/PKB phosphorylation in macrophages after stimulation with Complement 5a; settings: Mus musculus, RAW264.7, 50 nM Complement 5a for 5 minutes, inhibitors pretreated 20 minutes, phospho Serine 473 Akt, read-out: Cell Assay (P-Akt, Elisa) IC50
Experimental: b) Cell Based ELISA to Monitor PI3K Inhibition:
The efficacy of compounds of the invention in inhibiting the PI3K induced Akt/PKB phosphorylation may be tested in the following cell based assay.
Measurement of Akt/PKB phosphorylation in macrophages after stimulation with Complement 5a: Raw 264: Raw 264-7 macrophages (cultured in DMEM-F12 medium containing 10% Fetal Calf serum and antibiotics) are plated at 20′000 cells/well in a 96 MTP 24 h before cell stimulation. Previous to the stimulation with 50 nM of Complement 5a during 5 minutes, Cells are serum starved for 2 h, and pretreated with inhibitors for 20 minutes. After stimulation cells are fixed in 4% formaldehyde for 20 minutes and washed 3 times in PBS containing 1% Triton X-100 (PBS/Triton). Endogenous peroxidase is blocked by a 20 minutes incubation in 0.6% H2O2 and 0.1% Sodium Azide in PBS/Triton and washed 3 times in PBS/Triton. Cells are then blocked by 60 minutes incubation with 10% fetal calf serum in PBS/Triton. Next, phosphorylated Akt/PKB is detected by an overnight incubation at 4° C. with first antibody (anti phospho Serine 473 Akt IHC, Cell Signaling) diluted 800-fold in PBS/Triton, containing 5% bovine serum albumin (BSA). […] The reaction is stopped by addition of 50 μl of 1 M SO4H2 and absorbance is read at 450 nm. […]

Class I PI3-kinases = settings: Fruman et al., 1998, cited from earlier work
phospholipases = settings: cited from earlier work

| SMILES | IC50 [1] | also measured |
| --- | --- | --- |
| O=C1NC(=O)/C(=C/c2ccc3ncnc(N4CCCCC4)c3n2)S1 (as salt: potassium) [Example 1, (5Z)-5-{[4-(1-piperidinyl)pyrido[3,2-d]pyrimidin-6-yl]methylene}-1,3-thiazolidine-2,4-dione potassium salt] |  | melting point: 319 °C |
| O=C1NC(=O)/C(=C/c2ccc3ncnc(N4CCCCC4)c3n2)S1 [Example 1, (5Z)-5-{[4-(1-piperidinyl)pyrido[3,2-d]pyrimidin-6-yl]methylene}-1,3-thiazolidine-2,4-dione potassium salt] | 4 nM | IC50 [2]: < 10 nM |
| O=C1NC(=O)/C(=C/c2ccc3ncnc(N4CCC(C(F)(F)F)CC4)c3n2)S1 [Example 3, (5Z)-5-({4-[4-(trifluoromethyl)-1-piperidinyl]pyrido[3,2-d]pyrimidin-6-yl}methylene)-1,3-thiazolidine-2,4-dione potassium salt] | 6 nM | IC50 [2]: < 10 nM |
| O=C1NC(=O)/C(=C/c2ccc3nccnc3n2)S1 [Example 4, 5-Pyrido[2,3-b]pyrazin-6-ylmethylene-thiazolidine-2,4-dione] | 20 nM |  |
| O=C1NC(=O)/C(=C/c2ccc3occc3n2)S1 [Example 5, 5-Furo[3,2-b]pyridin-5-ylmethylene-thiazolidine-2,4-dione] | 35 nM |  |
| O=C1NC(=S)SC1=Cc1ccc2ncnc(N3CCC(F)CC3)c2n1 [Example 6, 5-[4-(4-Fluoro-piperidin-1-yl)-pyrido[3,2-d]pyrimidin-6-ylmethylene]-2-thioxo-thiazolidin-4-one] | 2 nM |  |
| COc1cc(OC)cc(-n2cnc3ccc(/C=C4\SC(=O)NC4=O)nc32)c1 [Example 8, (5Z)-5-{[3-(3,5-dimethoxyphenyl)-3H-imidazo[4,5-b]pyridin-5-yl]methylene}-1,3-thiazolidine-2,4-dione] | 10 nM |  |
| CN(C)CCCC(=O)N1CCc2cc(-n3cnc4ccc(/C=C5\SC(=O)NC5=O)nc43)ccc21 [Example 12, (5Z)-5-[(3-{1-[4-(dimethylamino)butanoyl]-2,3-dihydro-1H-indol-5-yl}-3H-imidazo[4,5-b]pyridin-5-yl)methylene]-1,3-thiazolidine-2,4-dione] | 7 nM |  |
| O=c1cc(N2CCOCC2)oc2c(-c3ccccc3)cccc12 [LY294002] |  | IC50 (Class I PI3-kinases; LY294002, read-out: IC50 against each of these PI3-kinases (Class I)): 15000 to 20000 nM; inhibitory activity on phospholipases (phospholipases): some inhibitory activity |
| COC[C@H]1OC(=O)c2coc3c2[C@@]1(C)C1=C(C3=O)[C@@H]2CCC(=O)[C@@]2(C)C[C@H]1OC(C)=O [wortmannin] |  | IC50 (Class I PI3-kinases; wortmannin, read-out: IC50 against each of the various Class I PI3-kinases): 1 to 10 nM |
